Several values for one entry are separate records, joined by “and”; a condition that tells them apart may be missing. Equal values may be shown once. Toxic doses and inconclusive results are not listed. The calls were made as follows: active = survival T/C of 150% or more; inactive = T/C below 125% in these data.
Test system: P388 leukemia ip, CD2F1 mice, survival T/C
Assay: NCI In Vivo Anticancer Drug Screen. Data for tumor model P388 Leukemia (intraperitoneal) in CD2F1 (CDF1) mice
Details: endpoint: median survival time, higher = longer survival
Outline: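 Mice carrying the transplanted tumor received test compound or vehicle. Survival was recorded in each group, and the value is the treated-group measurement divided by that of the vehicle-treated control group.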

[1] = dose: 100.0 mg/kg/injection, schedule: Q01DX009 (ip), vehicle: saline
[2] = dose: 200.0 mg/kg/injection, schedule: Q01DX009 (ip), vehicle: saline
[3] = dose: 50.0 mg/kg/injection, schedule: Q01DX005 (ip), vehicle: saline with Tween-80
[4] = dose: 100.0 mg/kg/injection, schedule: Q01DX005 (ip), vehicle: saline with Tween-80
[5] = dose: 60.0 mg/kg/injection, schedule: Q01DX005 (ip), vehicle: saline with Tween-80
[6] = dose: 120.0 mg/kg/injection, schedule: Q01DX005 (ip), vehicle: saline with Tween-80
[7] = dose: 240.0 mg/kg/injection, schedule: Q01DX005 (ip), vehicle: saline with Tween-80
[8] = dose: 50.0 mg/kg/injection, schedule: Q01DX005 (ip), vehicle: Klucel (hydroxypropylcellulose) (HPC)
[9] = dose: 100.0 mg/kg/injection, schedule: Q01DX005 (ip), vehicle: Klucel (hydroxypropylcellulose) (HPC)
[10] = dose: 100.0 mg/kg/injection, schedule: Q01DX009 (ip), vehicle: Klucel (hydroxypropylcellulose) (HPC)

Measured: T/C

CN1CCC(O)(C(=O)c2ccccc2)CC1
inactive: dose: 100.0 mg/kg/injection, schedule: Q04DX002 (ip), vehicle: saline 99 % of control and 104 % of control | dose: 200.0 mg/kg/injection, schedule: Q04DX002 (ip), vehicle: saline 103 % of control

CCOC(=O)C(CNc1ccc(OCc2ccccc2)cc1)NC(=O)c1ccccc1 (stereo not given)
inactive: dose: 50.0 mg/kg/injection, schedule: Q01DX009 (ip), vehicle: saline with Tween-80 105 % of control | dose: 50.0 mg/kg/injection, schedule: Q01DX009 (ip), vehicle: saline 96 % of control | dose: 100.0 mg/kg/injection, schedule: Q01DX009 (ip), vehicle: saline with Tween-80 100 % of control | [1] 88 % of control | dose: 200.0 mg/kg/injection, schedule: Q01DX009 (ip), vehicle: saline with Tween-80 87 % of control | [2] 88 % of control | dose: 400.0 mg/kg/injection, schedule: Q01DX009 (ip), vehicle: saline with Tween-80 91 % of control

Cc1cc(N)c(C)c2c1[nH]c1ccc(Br)cc12
inactive: [3] 94 % of control | [4] 93 % of control | dose: 200.0 mg/kg/injection, schedule: Q01DX005 (ip), vehicle: saline with Tween-80 89 % of control

O=C(CN1CCN(c2ccccc2)CC1)n1ccnc1
inactive: [5] 95 % of control | [6] 97 % of control | [7] 100 % of control

S=c1nc[nH]c2c1ncn2C1C=CC=CC=C1
inactive: [3] 110 % of control | [4] 106 % of control

C/C(=C/C=C(c1ccccc1)c1ccccc1)C1CCC2C3CCC4CC5CCC4(C)C3(O5)C(=O)CC12C (stereo not given)
inactive: dose: 6.25 mg/kg/injection, schedule: Q04DX002 (sc), vehicle: steriod suspending solution 102 % of control | dose: 12.5 mg/kg/injection, schedule: Q04DX002 (sc), vehicle: steriod suspending solution 105 % of control | dose: 25.0 mg/kg/injection, schedule: Q04DX002 (sc), vehicle: steriod suspending solution 101 % of control | dose: 50.0 mg/kg/injection, schedule: Q04DX002 (sc), vehicle: steriod suspending solution 101 % of control

COc1cc2c(c(C3(O)C(=O)N(C)c4ccccc43)c1OC)OCO2 (stereo not given)
inactive: [5] 101 % of control | [6] 98 % of control | [7] 98 % of control

COc1ccc(C2c3cc4c(cc3OC(C)(N3CCCC3)C2C)OCO4)c(OC)c1OC (stereo not given)
inactive: [5] 100 % of control | [6] 95 % of control | [7] 96 % of control

CCOC(=O)NNCC(=O)OCc1ccccc1
inactive: dose: 25.0 mg/kg/injection, schedule: Q01DX009 (ip), vehicle: other 90 % of control | dose: 50.0 mg/kg/injection, schedule: Q01DX009 (ip), vehicle: other 93 % of control | dose: 100.0 mg/kg/injection, schedule: Q01DX009 (ip), vehicle: other 100 % of control | dose: 200.0 mg/kg/injection, schedule: Q01DX009 (ip), vehicle: other 109 % of control

CN(C)CCC(OC(=O)C(c1ccccc1)c1ccccc1)c1ccccc1 (stereo not given)
inactive: [3] 101 % of control | [4] 103 % of control

O=C1C(N=Nc2ccccc2Cl)C(O)N(c2ccccc2)C(=S)N1c1cccc(Cl)c1Cl (stereo not given)
inactive: dose: 100.0 mg/kg/injection, schedule: Q01DX001 (ip), vehicle: Klucel (hydroxypropylcellulose) (HPC) 98 % of control | dose: 200.0 mg/kg/injection, schedule: Q01DX001 (ip), vehicle: Klucel (hydroxypropylcellulose) (HPC) 103 % of control | dose: 400.0 mg/kg/injection, schedule: Q01DX001 (ip), vehicle: Klucel (hydroxypropylcellulose) (HPC) 97 % of control

COc1ccc2[nH]c3c(c2c1)CNCC3
inactive: [1] 110 % of control | [2] 112 % of control

Cc1c(C#N)c(N)nc2c(C(N)=O)nsc12
inactive: dose: 6.25 mg/kg/injection, schedule: Q01DX005 (ip), vehicle: Klucel (hydroxypropylcellulose) (HPC) 98 % of control | dose: 12.5 mg/kg/injection, schedule: Q01DX005 (ip), vehicle: Klucel (hydroxypropylcellulose) (HPC) 102 % of control | dose: 25.0 mg/kg/injection, schedule: Q01DX005 (ip), vehicle: Klucel (hydroxypropylcellulose) (HPC) 95 % of control | [8] 91 % of control

COC(=O)C1Cc2[nH]cnc2C(c2c(CO)cnc(C)c2O)N1 (stereo not given)
inactive: [8] 104 % of control | [9] 104 % of control

C=C1C(=O)OC2CC(C)C3C(OC(C)=O)CC(OC(C)=O)C3(C)CC12 (stereo not given)
inactive: dose: 12.5 mg/kg/injection, schedule: Q04DX002 (ip), vehicle: saline with Tween-80 99 % of control | dose: 25.0 mg/kg/injection, schedule: Q04DX002 (ip), vehicle: saline with Tween-80 106 % of control | dose: 50.0 mg/kg/injection, schedule: Q04DX002 (ip), vehicle: saline with Tween-80 103 % of control

CN(C)c1cc(N(C)C)c2ccccc2n1
inactive: dose: 12.5 mg/kg/injection, schedule: Q01DX009 (ip), vehicle: Klucel (hydroxypropylcellulose) (HPC) 102 % of control | dose: 25.0 mg/kg/injection, schedule: Q01DX009 (ip), vehicle: Klucel (hydroxypropylcellulose) (HPC) 106 % of control | [10] 97 % of control

CCN(CC)CCCNc1cc(OC)cc2nc3ccccc3nc12
inactive: dose: 12.5 mg/kg/injection, schedule: Q01DX005 (ip), vehicle: saline 104 % of control | dose: 25.0 mg/kg/injection, schedule: Q01DX005 (ip), vehicle: saline 104 % of control | dose: 50.0 mg/kg/injection, schedule: Q01DX005 (ip), vehicle: saline 99 % of control and 112 % of control | dose: 100.0 mg/kg/injection, schedule: Q01DX005 (ip), vehicle: saline 114 % of control

CC(=O)OC1=NC(C)c2c1cc(OC(C)=O)nc2OC(C)=O (stereo not given)
inactive: dose: 50.0 mg/kg/injection, schedule: Q01DX009 (ip), vehicle: Klucel (hydroxypropylcellulose) (HPC) 104 % of control | [10] 102 % of control | dose: 200.0 mg/kg/injection, schedule: Q01DX009 (ip), vehicle: Klucel (hydroxypropylcellulose) (HPC) 102 % of control

C=CCN1CCc2c([nH]c3cc(OC)ccc23)C1C (stereo not given)
inactive: dose: 9.0 mg/kg/injection, schedule: Q01DX005 (ip), vehicle: Klucel (hydroxypropylcellulose) (HPC) 95 % of control | dose: 18.0 mg/kg/injection, schedule: Q01DX005 (ip), vehicle: Klucel (hydroxypropylcellulose) (HPC) 94 % of control | dose: 36.0 mg/kg/injection, schedule: Q01DX005 (ip), vehicle: Klucel (hydroxypropylcellulose) (HPC) 89 % of control | dose: 72.0 mg/kg/injection, schedule: Q01DX005 (ip), vehicle: Klucel (hydroxypropylcellulose) (HPC) 94 % of control | dose: 144.0 mg/kg/injection, schedule: Q01DX005 (ip), vehicle: Klucel (hydroxypropylcellulose) (HPC) 94 % of control

c1ccc(-c2nn(-c3ccccc3)[n+](-c3ccccc3-c3ccccc3)n2)cc1
inactive: dose: 5.0 mg/kg/injection, schedule: Q01DX009 (ip), vehicle: saline 109 % of control and 114 % of control | dose: 10.0 mg/kg/injection, schedule: Q01DX009 (ip), vehicle: saline 120 % of control | dose: 20.0 mg/kg/injection, schedule: Q01DX009 (ip), vehicle: saline 121 % of control

CC1=C(O)C(=O)C=C2C1=CC=C1[C@@]2(C)CC[C@@]2(C)[C@@H]3C[C@](C)(C(=O)O)CC[C@]3(C)CC[C@]12C
inactive: dose: 0.19 mg/kg/injection, schedule: Q01DX009 (ip), vehicle: saline 101 % of control | dose: 0.39 mg/kg/injection, schedule: Q01DX009 (ip), vehicle: saline 101 % of control | dose: 0.78 mg/kg/injection, schedule: Q01DX009 (ip), vehicle: saline 97 % of control | dose: 1.56 mg/kg/injection, schedule: Q01DX009 (ip), vehicle: saline 87 % of control | dose: 3.12 mg/kg/injection, schedule: Q01DX009 (ip), vehicle: suspension in saline 91 % of control

O=C(Nc1ccccc1)SCCSC(=S)N1CCCC1
inactive: [8] 103 % of control | [9] 105 % of control | dose: 200.0 mg/kg/injection, schedule: Q01DX005 (ip), vehicle: Klucel (hydroxypropylcellulose) (HPC) 105 % of control

CCC(=O)Cc1nc2n(c1O)/C(=N/C(=O)Nc1ccc(Cl)cc1)N=N2
inactive: [5] 100 % of control | [6] 98 % of control | [7] 98 % of control

NS(=O)(=O)c1ccc(NC(=S)Nc2ccccc2C(F)(F)F)cc1
inactive: dose: 50.0 mg/kg/injection, schedule: Q01DX009 (ip), vehicle: gum acacia 92 % of control | dose: 100.0 mg/kg/injection, schedule: Q01DX009 (ip), vehicle: gum acacia 109 % of control | dose: 200.0 mg/kg/injection, schedule: Q01DX009 (ip), vehicle: gum acacia 100 % of control

NC(=O)C(F)C(N)C(=O)O (stereo not given)
inactive: dose: 12.5 mg/kg/injection, schedule: Q01DX009 (ip), vehicle: suspension in saline 100 % of control | dose: 25.0 mg/kg/injection, schedule: Q01DX009 (ip), vehicle: suspension in saline 103 % of control | dose: 50.0 mg/kg/injection, schedule: Q01DX009 (ip), vehicle: suspension in saline 97 % of control

COC(=O)N1C=CC2ON=C(S(=O)(=O)c3ccccc3)C2C1 (stereo not given)
inactive: [5] 108 % of control | [6] 95 % of control | [7] 98 % of control

From PubChem BioAssay AID330 (DTP/NCI, 2004)
